Consider three compounds from PMC5522529, “Mechanisms of Paradoxical Activation of AMPK by the Kinase Inhibitors SU6656 and Sorafenib” (Cell Chemical Biology, 2017).

Conditions in all cases: 1 hr
One test concerns AMPK. Description: AMPK activity and Thr172 phosphorylation in HEK293 cells. It counts as cell-based, human. Here is the method: Figure 1 SU6656 Activates AMPK but Not AMPK-Related Kinases (A) HEK293 cells were incubated with the indicated concentrations of SU6656 or berberine (300 μM) for 1 hr; total AMPK activity was assayed in immunoprecipitates (top; mean ± SEM, n = 4), and phosphorylation of AMPK (Thr172), ACC (Ser80), and Raptor (Ser792) analyzed by western blotting (bottom; n = 2). (B) HEK293 cells were incubated with 100 μM SU6656 (1 hr), AMPK complexes containing α1, α2, β1, and β2 immunoprecipitated using isoform-specific antibodies, and AMPK activity measured (mean ± SEM, n = 4). (C) HeLa cells stably expressing LKB1 ([Fogarty et al., 2010]) were incubated with 100 μM SU6656 for 1 hr, AMPK or individual ARKs immunoprecipitated, and kinase assays carried out (antibodies that distinguish MARK2/MARK3 were not available, so they were assayed together). Results are means ± SEM (n = 2). In all panels, asterisks indicate significant differences from controls without SU6656. *p < 0.05, **p < 0.01, ****p < 0.0001. […]
Endogenous AMPK was immunoprecipitated using the specified antibodies (for total AMPK, an equal mixture of anti-α1 and –α2 antibodies) and assayed at 200 μM ATP ([Hardie et al., 2000], [Towler et al., 2008]) using the AMARA peptide ([Dale et al., 1995]) as substrate, except for assays of allosteric activation by AMP (Figure 5A) where the SAMS peptide was used as substrate with 2 mM ATP ([Gowans et al., 2013]). The AMPK-related kinases SIK1, SIK2, SIK3, SNARK, MARK2/3 and MARK4 were immunoprecipitated and assayed as previously described ([Lizcano et al., 2004]) in lysates of Hela cells stably expressing LKB1 ([Fogarty et al., 2010]). LKB1 was assayed using the LKBtide peptide as substrate ([Sakamoto et al., 2004]).

The target in test [1] is T1, AMPK-γ2 R531G (RG) mutant (Homo sapiens, UniProt Q9UGJ0, R531G).
T1 construct: expressed in transfected cells
T1 sequence (Q9UGJ0 whole entry R531G): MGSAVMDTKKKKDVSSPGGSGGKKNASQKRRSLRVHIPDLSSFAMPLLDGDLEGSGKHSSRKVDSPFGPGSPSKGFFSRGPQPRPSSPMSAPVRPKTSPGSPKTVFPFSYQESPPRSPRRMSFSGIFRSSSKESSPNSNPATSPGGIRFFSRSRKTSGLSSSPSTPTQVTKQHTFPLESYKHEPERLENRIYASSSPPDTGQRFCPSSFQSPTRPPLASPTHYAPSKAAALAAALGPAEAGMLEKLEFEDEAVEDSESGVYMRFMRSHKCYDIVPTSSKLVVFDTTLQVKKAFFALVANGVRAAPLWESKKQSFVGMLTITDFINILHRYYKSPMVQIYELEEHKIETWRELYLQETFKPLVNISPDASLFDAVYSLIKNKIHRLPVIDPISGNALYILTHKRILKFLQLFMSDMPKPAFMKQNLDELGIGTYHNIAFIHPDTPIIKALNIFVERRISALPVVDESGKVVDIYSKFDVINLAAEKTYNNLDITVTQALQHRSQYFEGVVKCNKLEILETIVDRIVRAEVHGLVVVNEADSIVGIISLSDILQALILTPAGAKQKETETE
Nature of the test: AMPK activity in HEK293 cells expressing R531G AMPK-γ2. It counts as cell-based. The source says: The next possibility was that, like several other AMPK-activating drugs, SU6656 inhibits mitochondrial ATP synthesis, and thus activates AMPK indirectly by increasing cellular AMP/ADP. To test this, we used cell lines inducibly expressing either WT AMPK-γ2 or an AMP/ADP-resistant R531G (RG) mutant ([Hawley et al., 2010]). […] There were no effects of SU6656 on cellular oxygen uptake, unlike berberine. Subsequent addition of the uncoupler 2,4-dinitrophenol (DNP), which prevents the respiratory chain from being limited by ADP supply, increased oxygen uptake identically in control and SU6656-treated cells but had no effect following berberine, as expected for a complex I inhibitor (Figure S2).
(§1) (B) WT or RG cells were treated as in (A) and nucleotides extracted for analysis (mean ± SD, n = 3). […] (E) (See also Figure S2) Time courses of cellular oxygen uptake before and after addition of the indicated concentrations of sorafenib (SO, μM), SU6656 (100 μM) or phenformin (PHEN, 10 mM) (mean ± SEM, n = 4). (F) Effect of various concentrations of sorafenib or phenformin (10 mM) on activation (top, mean ± SEM, n = 3) or phosphorylation (bottom) of AMPK in cells expressing wild-type AMPK-γ2 (WT) or the R531G mutant AMPK-γ2 (RG). In all panels, asterisks show significant differences from DMSO controls (ns, not significant). In (B), daggers (†) show significant differences between results in WT and RG cells. *p < 0.05, **p < 0.01, ***p < 0.001, ****p < 0.0001, ^††††p < 0.0001.
HEK-293 cells stably expressing tetracycline-inducible FLAG-tagged human AMPK-γ2, or an R531G mutant, were generated by introducing the corresponding DNAs into Flp-In™ T-REx™ 293 cells ([Auciello et al., 2014]). Expression of the FLAG-tagged constructs was induced for 48 hr using tetracycline (1 μg.ml^-1) prior to addition of compounds under test. Transient transfections were carried out 36-48 hr prior to experiments, using Fugene 6 according to manufacturers’ instructions.

A further test relates to HEK293 cells. Description: Cellular AMP:ATP and ADP:ATP ratios. It counts as cell-based, human. The protocol: as §1
Cells were incubated for 60 min and AMPK activity measured; results in the top panel are means ± SEM (n = 8), with significant differences from the DMSO control indicated (ns, not significant). The bottom panels show western blots from the same experiment (n = 2). (B) Analysis of AMP:ATP and ADP:ATP ratios from a parallel experiment to that in (A). Results are means ± SEM (n = 3), with significant differences from the DMSO control indicated. *p < 0.05, **p < 0.01, ****p < 0.0001.
The levels of AMP, ADP and ATP were measured using a TSQ Quantiva interfaced with Ultimate 3000 Liquid Chromatography system (ThermoScientific), equipped with a porous graphitic carbon column (HyperCarb 30x1mm ID 3 μm; Part No: C-35003-031030, Thermo-Scientific). Mobile phase buffer A consisted of 0.3% (v/v) formic acid adjusted to pH 9 with ammonia prior to a 1:10 dilution. Mobile phase buffer B was 80% (v/v) acetonitrile. The column was maintained at a controlled temperature of 30°C and was equilibrated with 10% buffer B for 5 minutes at a constant flow rate of 0.06 mL/min. Aliquots of 1 μL of each sample were loaded onto the column and compounds eluted with a linear gradient of 10%-60% buffer B over 9 min. Buffer B was then increased to 100% within 1 min, and the column washed for 5 min with 100% Buffer B. Eluents were sprayed into the TSQ Quantiva using Ion Max NG ion source with ion transfer tube temperature set to 350°C and vaporizer temperature 125°C. The TSQ Quantiva was run in negative mode with a spray voltage of 2600, sheath gas 40 and Aux gas 10. Levels of ATP, ADP and AMP were measured using multiple reactions monitoring mode (MRM) with optimised collision energies and radio frequencies previously determined by infusing pure compounds. Three transitions were used to monitor each of the three compounds, ATP (505.92>158.98, 505.92>408.12 and 505.92>426.12), ADP (426.98>158.98, 426.98>328.78 and 426.98>409.09) and AMP (345.96>134.20, 345.96>151.27 and 345.96>211.12).

Turning to `CN(C)S(=O)(=O)c1ccc2c(c1)/C(=C/c1cc3c([nH]1)CCCC3)C(=O)N2` [SU6656], the “activation of AMPK complexes by subunit isoform” value with AMPK (100 μM, isoform-specific antibodies) is “activate AMPK complexes containing the α1, α2, β1, and β2 subunit isoforms”. For the same compound, the “AMPK activity / Thr172 phosphorylation” value in the test with AMPK is reported as “caused activation of AMPK”. Besides, the AMPK activity result in test [1] is “activated AMPK and enhanced Thr172 phosphorylation in both WT and RG cells”. The “cellular AMP:ATP and ADP:ATP ratios” value with HEK293 cells is “no significant effects”.

In the case of `COc1ccc2cc3[n+](cc2c1OC)CCc1cc2c(cc1-3)OCO2` [berberine], in the test on AMPK, the “AMPK activity / Thr172 phosphorylation” value is “much smaller degree of AMPK activation”. Further, the “cellular AMP:ATP and ADP:ATP ratios” value with HEK293 cells is recorded as “robustly increased”.

Turning to `CNC(=O)c1cc(Oc2ccc(NC(=O)Nc3ccc(Cl)c(C(F)(F)F)c3)cc2)ccn1` [sorafenib], the “AMPK activity / Thr172 phosphorylation” value in the test with AMPK is listed as “activated AMPK”. For the same compound, the AMPK activity result in test [1] is “Neither AMPK activity nor Thr172 phosphorylation were significantly elevated”. The “cellular AMP:ATP and ADP:ATP ratios” value in the test on HEK293 cells was “increased cellular AMP:ATP and ADP:ATP ratios to a similar or even greater extent than phenformin”.
